Assay results as given in ChEMBL document CHEMBL4321839, “Structure-activity relationships (SAR) of triazine derivatives: Promising antimicrobial agents” (Eur J Med Chem, 2020).
≈ marks a conversion by molar mass, not a printed value. Each block holds one molecule with its values, some of them ahead of it.

Columns and labels:
Staphylococcus aureus [1] = test: Antimicrobial activity against Staphylococcus aureus […] assessed as reduction in microbial growth after 24 to 48 hrs by microdilution susceptibility test; assay type: functional
Escherichia coli [2] = test: Antimicrobial activity against Escherichia coli ATCC 25922 assessed as reduction in microbial growth after 24 to 48 hrs by microdilution susceptibility test; assay type: functional
Escherichia coli [3] = test: Antimicrobial activity multi drug-resistant against Escherichia coli; assay type: functional
Staphylococcus aureus [4] = test: Antimicrobial activity methicillin-resistant against Staphylococcus aureus; assay type: functional
Bacillus subtilis [5] = test: Antimicrobial activity against Bacillus subtilis NCIM-2063 assessed as zone of inhibition at 5 ug after 24 hrs by disk diffusion method; assay type: functional; settings: NCIM-2063, 24 h, read-out: IZ
Bacillus subtilis [6] = test: Antimicrobial activity against Bacillus subtilis NCIM-2063 assessed as reduction in microbial growth after 24 hrs by CLSI based broth dilution method; assay type: functional; settings: NCIM-2063, 24 h
Escherichia coli [7] = test: Antimicrobial activity against Escherichia coli NCIM-2065 assessed as reduction in microbial growth after 24 hrs by CLSI based broth dilution method; assay type: functional; settings: NCIM-2065, 24 h
Staphylococcus aureus [8] = test: Antimicrobial activity against Staphylococcus aureus NCIM-2079 assessed as zone of inhibition at 5 ug after 24 hrs by disk diffusion method; assay type: functional; settings: NCIM-2079, 24 h, read-out: IZ
Staphylococcus aureus [9] = test: Antimicrobial activity against methicillin-resistant Staphylococcus aureus clinical isolate MRSA1 assessed as reduction in microbial growth by two-fold serial dilution method; assay type: functional
[10] = Cytotoxicity against African green monkey Vero cells incubated for 72 hrs by MTT assay; assay type: cell-based; settings: chlorocebus sabaeus
Candida albicans = test: Antifungal activity against Candida albicans NCIM-3102 at 18 to 24 hrs by CLSI based alamar blue assay; assay type: functional
Aspergillus niger = test: Antifungal activity against Aspergillus niger NCIM-620 at 72 hrs by CLSI based alamar blue assay; assay type: functional; settings: NCIM-620, 72 h
Cryptococcus neoformans = test: Antifungal activity against Cryptococcus neoformans NCIM-3542 at 72 hrs by CLSI based alamar blue assay; assay type: functional; settings: NCIM-3542, 72 h
Nakaseomyces glabratus = test: Antifungal activity against Candida glabrata NCIM-3266 at 18 to 24 hrs by CLSI based alamar blue assay; assay type: functional
Pseudomonas aeruginosa = test: Antimicrobial activity against Pseudomonas aeruginosa NCIM-2036 assessed as zone of inhibition at 5 ug after 24 hrs by disk diffusion method; assay type: functional; settings: NCIM-2036, 24 h, read-out: IZ
Bacillus cereus = test: Antimicrobial activity against Bacillus cereus NCIM-2156 assessed as zone of inhibition at 5 ug after 24 hrs by disk diffusion method; assay type: functional; settings: NCIM-2156, 24 h, read-out: IZ
Klebsiella pneumoniae = test: Antimicrobial activity against multi drug-resistant Klebsiella pneumoniae assessed as reduction in microbial growth by two-fold serial dilution method; assay type: functional
Lacticaseibacillus casei = test: Antibacterial activity against Lactobacillus casei NCIM-2651 assessed as reduction in microbial growth incubated for 24 hrs by broth dilution method; assay type: functional; settings: NCIM-2651, 24 h
Proteus vulgaris = test: Antimicrobial activity against Proteus vulgaris NCIM-2027 assessed as reduction in microbial growth after 24 hrs by CLSI based broth dilution method; assay type: functional; settings: NCIM-2027, 24 h

MIC (Staphylococcus aureus [1]): 12.5 to 25 µg/mL | MIC (Escherichia coli [2]): 12.5 to 25 µg/mL
Structure (SMILES): O=C(CNc1nc(NCC(=O)N/N=C/c2ccc(Cl)cc2)nc(Nc2ccc(-c3ccc(Nc4nc(NCC(=O)N/N=C/c5ccc(Cl)cc5)nc(NCC(=O)N/N=C/c5ccc(Cl)cc5)n4)cc3)cc2)n1)N/N=C/c1ccc(Cl)cc1

Structure (SMILES): O=C(O)C1=CC(C2CC2)C2=C(CC(F)C3=NN=C(c4ccc(Cl)cc4)CN32)C1=O (configuration not stated)
MIC (Escherichia coli [3]): 8 µg/mL (≈ 19.3 µM) | MIC (Staphylococcus aureus [4]): 8 µg/mL (≈ 19.3 µM)

Structure (SMILES): COc1ccccc1C1=NN=C2C(F)CC3=C(C(C4CC4)C=C(C(=O)O)C3=O)N2C1 (configuration not stated)
MIC (Escherichia coli [3]): 0.5 µg/mL (≈ 1.22 µM) | MIC (Staphylococcus aureus [4]): 1 µg/mL (≈ 2.44 µM)

Structure (SMILES): C[C@H]1COc2c(N3CCN(C)CC3)c(F)cc3c(=O)c(C(=O)O)cn1c23.C[C@H]1COc2c(N3CCN(C)CC3)c(F)cc3c(=O)c(C(=O)O)cn1c23.O [LEVOFLOXACIN]
zone of inhibition at 5 µg/disc (Bacillus subtilis [5]): 14 to 15 mm | MIC (Bacillus subtilis [6]): 3.12 µg/mL | MIC (Escherichia coli [7]): 3.12 µg/mL | zone of inhibition at 5 µg/disc (Staphylococcus aureus [8]): 14 to 15 mm

MIC (Staphylococcus aureus [1]): 12.5 to 25 µg/mL | MIC (Escherichia coli [2]): 12.5 to 25 µg/mL
Structure (SMILES): O=C(CNc1nc(NCC(=O)N/N=C/c2ccc(Cl)cc2)nc(N2CCN(c3nc(NCC(=O)N/N=C/c4ccc(Cl)cc4)nc(NCC(=O)N/N=C/c4ccc(Cl)cc4)n3)CC2)n1)N/N=C/c1ccc(Cl)cc1

Structure (SMILES): O=C(N/N=C/c1ccc2c(c1)OCO2)c1ccc(Nc2nc(N3CCCCC3)nc(N3CCCCC3)n2)cc1
MIC (Staphylococcus aureus [9]): 25 µg/mL | CC50 at 72 h [10]: 250 µg/mL (≈ 473 µM)

Structure (SMILES): Nc1ccc(C2=NN=C3C(F)CC4=C(C(C5CC5)C=C(C(=O)O)C4=O)N3C2)cc1 (configuration not stated)
MIC (Staphylococcus aureus [4]): 0.25 µg/mL (≈ 0.634 µM)

MIC (Candida albicans): 0.63 to 5 µg/mL (≈ 1.48 to 11.8 µM) | MIC (Aspergillus niger): 0.63 to 5 µg/mL (≈ 1.48 to 11.8 µM) | MIC (Cryptococcus neoformans): 0.63 to 5 µg/mL (≈ 1.48 to 11.8 µM) | MIC (Nakaseomyces glabratus): 0.63 to 5 µg/mL (≈ 1.48 to 11.8 µM)
Structure (SMILES): c1ccc(-c2csc(Nc3nc(N4CCOCC4)nc(N4CCOCC4)n3)n2)cc1

Structure (SMILES): COc1ccc(C2=NN=C3C(F)CC4=C(C(C5CC5)C=C(C(=O)O)C4=O)N3C2)cc1OC (configuration not stated)
MIC (Escherichia coli [3]): 0.5 µg/mL (≈ 1.14 µM) | MIC (Staphylococcus aureus [4]): 1 µg/mL (≈ 2.28 µM)

Structure (SMILES): Cc1ccc(Nc2nc(Nc3ccc(C)cc3)nc(N3CCN(C(=S)Nc4ccnc5cc(Cl)ccc45)CC3)n2)cc1
zone of inhibition at 5 µg/disc (Bacillus subtilis [5]): 16 to 17 mm | zone of inhibition at 5 µg/disc (Pseudomonas aeruginosa): 9 to 17 mm | zone of inhibition at 5 µg/disc (Bacillus cereus): 9 to 17 mm | zone of inhibition at 5 µg/disc (Staphylococcus aureus [8]): 16 to 17 mm

MIC (Candida albicans): 0.63 to 5 µg/mL (≈ 1.34 to 10.6 µM) | MIC (Aspergillus niger): 0.63 to 5 µg/mL (≈ 1.34 to 10.6 µM) | MIC (Cryptococcus neoformans): 0.63 to 5 µg/mL (≈ 1.34 to 10.6 µM) | MIC (Nakaseomyces glabratus): 0.63 to 5 µg/mL (≈ 1.34 to 10.6 µM)
Structure (SMILES): O=[N+]([O-])c1ccc(-c2csc(Nc3nc(N4CCOCC4)nc(N4CCOCC4)n3)n2)cc1

MIC (Candida albicans): 0.32 µg/mL (≈ 0.504 µM) | MIC (Nakaseomyces glabratus): 0.32 µg/mL (≈ 0.504 µM)
Structure (SMILES): O=[N+]([O-])c1ccc(-c2csc(Nc3nc(N(c4ccccc4)c4ccccc4)nc(N(c4ccccc4)c4ccccc4)n3)n2)cc1

Structure (SMILES): O=C(N/N=C/c1ccccc1)c1ccc(Nc2nc(N3CCCCC3)nc(N3CCCCC3)n2)cc1
CC50 at 72 h [10]: 250 µg/mL (≈ 516 µM) | MIC (Klebsiella pneumoniae): 50 µg/mL

MIC (Candida albicans): 0.63 to 5 µg/mL (≈ 1.37 to 10.9 µM) | MIC (Aspergillus niger): 0.63 to 5 µg/mL (≈ 1.37 to 10.9 µM) | MIC (Cryptococcus neoformans): 0.63 to 5 µg/mL (≈ 1.37 to 10.9 µM) | MIC (Nakaseomyces glabratus): 0.63 to 5 µg/mL (≈ 1.37 to 10.9 µM)
Structure (SMILES): Clc1ccc(-c2csc(Nc3nc(N4CCOCC4)nc(N4CCOCC4)n3)n2)cc1

MIC (Lacticaseibacillus casei): 12.5 µg/mL
Structure (SMILES): CN[C@@H]1[C@H](O[C@H]2[C@H](O[C@H]3[C@H](O)[C@@H](O)[C@H](N=C(N)N)[C@@H](O)[C@@H]3N=C(N)N)O[C@@H](C)[C@]2(O)C=O)O[C@@H](CO)[C@H](O)[C@H]1O [STREPTOMYCIN]

Structure (SMILES): S=C(Nc1ccnc2cc(Cl)ccc12)N1CCN(c2nc(Nc3ccc(Cl)cc3)nc(Nc3ccc(Cl)cc3)n2)CC1
zone of inhibition at 5 µg/disc (Bacillus subtilis [5]): 16 to 17 mm | zone of inhibition at 5 µg/disc (Pseudomonas aeruginosa): 9 to 17 mm | zone of inhibition at 5 µg/disc (Bacillus cereus): 9 to 17 mm | zone of inhibition at 5 µg/disc (Staphylococcus aureus [8]): 16 to 17 mm

Structure (SMILES): O=C(O)C1=CC(C2CC2)C2=C(CC(F)C3=NN=C(c4cccc(Cl)c4)CN32)C1=O (configuration not stated)
MIC (Escherichia coli [3]): 8 µg/mL (≈ 19.3 µM) | MIC (Staphylococcus aureus [4]): 8 µg/mL (≈ 19.3 µM)

MIC (Proteus vulgaris): 3.91 µg/mL
Structure (SMILES): O=C1CSC(=O)N1c1nc(Nc2cccc(Cl)c2)nc(Nc2cccc(Cl)c2)n1

MIC (Bacillus subtilis [6]): 6.25 µg/mL | MIC (Escherichia coli [7]): 12.5 µg/mL
Structure (SMILES): O=[N+]([O-])c1cccc(Nc2nc(NC3=NC(c4ccccc4O)=CC(c4ccccc4[N+](=O)[O-])S3)nc(Nc3cccc([N+](=O)[O-])c3)n2)c1 (configuration not stated)
